Data on one molecule can be found in patent publication US20170197977A9, “COMPOSITIONS AND METHODS FOR TREATING NEURODEGENERATIVE DISEASE” (COGNITION THERAPEUTICS, INC., priority 2011, published 2017).

SMILES strings stand for the structures. Entries after “also recorded” stand apart in the source; their conditions may differ.

Broadly, the Ki is a measure of affinity in units of concentration, obtained from inhibition or displacement.

A short description of series [1]: In vivo PK, plasma and brain levels. Conditions: male, C57BL/6, mouse. An excerpt: A plasma calibration curve was generated. […] Subcutaneous compound administration was accomplished by […]. Per oral administration was accomplished by gastric gavage. Intravenous administration was accomplished via jugular catheter. […] A brain calibration curve was generated.

The test system of series [2] is caspase-3 activity in neurons. The series is described as follows: Caspase-3 activity assay in neurons. The format is cell-based. On the procedure:
The activation of endogenous caspase-3 by sigma-2 receptor ligands was measured using the Caspase-3 Colorimetric Activity Assay Kit (Milipore, Billerica, Mass.) according to the manufacture's protocol. Briefly, MDA-MB 435 or MDA-MB23I cells were plated at 0.5×10^6 cells 100 mm dish. 24 hours after plating, sigma-2 ligands were added to the culture dishes to induce caspase 3 activation. The final concentration of the sigma-2 ligand was its EC50. 24 hours after treatment, cells were harvested, lysed in 300 uL of Cell Lysis Buffer, and centrifuged for 5 minutes at 10,000×g. Supernatant was collected and incubated with caspase-3 substrate, DEVD-pNA, for 2 hours at 37° C. […] Compounds IXa,IXb and II behaved like sigma-2 […] in both cancer cells and neurons.

In series [3] the test system is Abeta oligomer-induced membrane trafficking deficits. The series is described as follows: Membrane trafficking/exocytosis (MTT) assay in mature primary hippocampal neurons. It counts as cell-based, rat. As to conditions: for Membrane trafficking when dosed in the absence of Abeta: compound alone. The procedure: The present exocytosis assay was adapted for use with mature primary neuronal cultures grown for 3 weeks in vitro.
The methods used to generate the results were as follows in the Membrane Trafficking/Exocytosis (MTT) assay.
Primary hippocampal neurons from E18 Sprague-Dawley rat embryos were plated at optimized concentrations in 384 well plates in NB media (Invitrogen). Neurons were maintained in cultures for 3 weeks, with twice weekly feeding of NB media with N2 supplement (Invitrogen).
[…] MTT reagent (3-(4,5-dimethylthizaol-2yl)-2,5diphenyl tetrazolium bromide) (Roche Molecular Biochemicals) was reconstituted in phosphate buffered saline to 5 mg/mL. 10 μL of MTT labeling reagent is added to each well and incubated at 37° C. for 1 h, then imaged. Exocytosis was assessed by automated microscopy and image processing to quantify the amount of endocytosed and exocytosed formazan.
Each assay plate was formatted so that compounds are tested with and without Abeta oligomer on each plate.

Another series concerns the target T1, sigma-1 receptor (Cavia porcellus, UniProt Q60492).
T1 construct: from tissue; host or cells: guinea pig brain membrane homogenates
The series is described as follows: Competitive radioligand binding assay 2, guinea pig brain membrane homogenates. Conditions: read-out: Sigma-1 (Ki, nM) ±mean SEM. The procedure:
The affinity of candidate sigma-2 ligand compounds at sigma-1 and sigma-2 receptors was also determined by displacement of different known labeled sigma-2 or sigma-1 ligands. Filtration assays were conducted according the previously published procedure (Xu, et al., 2005). Test compounds were dissolved in N,N-Dimethylformamide (DMF), dimethyl sulfoxide (DMSO) or ethanol and then diluted in 50 mM Tris-HCl pH 7.4 buffer containing 150 mM NaCl and 100 mM EDTA. Membrane homogenates were made from guinea pig brain for sigma-1 binding assay and rat liver for sigma-2 binding assay. Membrane homogenates were diluted with 50 mM Tris-HCl buffer, pH 8.0 and incubated at 25° C. in a total volume of 150 uL in 96 well plates with the radioligand and test compounds with concentrations ranging from 0.1 nM to 10 uM. […] A Wallac 1450 MicroBeta liquid scintillation counter (Perkin Elmer, Boston, Mass.) was used to quantitate the bound radioactivity.
The binding affinity, Ki values was calculated using the method of Cheng and Prusoff. […]

Series [4] has as its system SKOV-3 human ovarian cancer cell line. The series is described as follows: MTS tumor cell viability assay. It counts as cell-based. Conditions: agonist/antagonist call relative to siramesine. On the procedure:
The cytotoxicity of compounds shown below was determined using the CellTiter96 Aqueous One Solution Assay (Promega, Madison, Wis.). […] The plate was read at 490 nm in a Victor3 plate reader (PerkinElmer Life and Analytical Sciences, Shelton, Conn.). The EC^50 value, defined as the concentration of the sigma ligand required to inhibit cell viability by 50% relative to untreated cells, was determined from the dose response curve for each cell line.

The subject of series [5] is hAPP (Swedish/London) transgenic mice. As to conditions: 0.5 mg/kg/day subcutaneous minipump, one month, 8 month old female mice. The procedure:
In this study, rather than preventing deficits from occurring, deficits that were already established were treated. These studies were performed pursuant to a service contract by scientists who were blind to the experimental conditions. The compound was infused at 0.5 and 0.1 mg/kg/day for one month in 8 month old female mice via subcutaneous minipump and cognitive performance was tested in the Morris water maze, a test of hippocampal-based spatial learning and memory.
The swim speed was analyzed as part of the Morris measurements to determine if there were any motor or motivational deficits. Our vehicle is a 5% DMSO/5% Solutol, 90% saline mixture. The transgenic animals treated with a low dose (0.1 mg/kg/day) and a high dose (0.5 mg/kg/day) of compound. The average of three daily trials on each of four consecutive days were determined.
Escape latency measurements from the Morris water test were taken.
During the final four days of treatment, mice were tested to find the hidden platform in three trials/day. A computerized tracking system automatically quantified escape latency, or swim length.

The test system of another series is neuronal cultures. The series is described as follows: Nuclear intensity / morphology in neuronal cultures. Conditions: 24 hours.

T1 sequence (Q60492 whole entry): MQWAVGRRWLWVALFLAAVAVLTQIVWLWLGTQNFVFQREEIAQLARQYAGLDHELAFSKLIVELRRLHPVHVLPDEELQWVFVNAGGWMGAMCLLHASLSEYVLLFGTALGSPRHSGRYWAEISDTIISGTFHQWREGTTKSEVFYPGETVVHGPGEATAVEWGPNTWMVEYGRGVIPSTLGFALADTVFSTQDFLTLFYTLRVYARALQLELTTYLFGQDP

As to `COc1cc(CCC(C)NCc2ccc(C(F)(F)F)cc2)ccc1O` (stereo not drawn) [Compound II], in series [1] (iv, 10 mg/kg, 180 min), the “Brain concentration as multiple of the efficacious brain dose in vivo” value is 57 ×. Also, the “Amount in the brain as multiple of the efficacious dose” value in series [1] (po, 3 h) is roughly 40 ×. The “Induction of caspase-3 activity” value in series [2] is recorded as “did not induce caspase-3 activity”. Moreover, the “Block of caspase-3 activation caused by sigma-2 receptor agonist SV-119” value in series [2] (24 hours) was “blocked caspase-3 activation”. In series [3] (137 pM oligomers, Compound II 15 uM), the “Membrane trafficking deficits induced by AD brain-derived Abeta oligomers” value was “eliminates the membrane trafficking deficits; also recorded: completely eliminated”. The “Abeta oligomer-induced membrane traffic changes” value in series [3] (15 micromolar Compound II) is reported as “blocked”. In series [3] (Table 10A, trafficking or synapse number without Abeta oligomer), the “Assay effects in the absence of Aβ” value is reported as “No”. Also, in series [3] (Table 10B), the “Functional Neuronal Phenotype” value is “Antagonist”. Further, in series [3] (Table 11, figure in brackets), the “Conc at Max Inhib. of Abeta” value amounted to 10. For the same molecule, the “Membrane trafficking when dosed in the absence of Abeta” value in series [3] is given as “does not affect trafficking”; in series [3] (listed as CT0109), “no significant effect”. Moreover, on sigma-1 receptor, the Ki came out at 108 ± 19.9 nM. The Action result in series [4] is on record as “Antagonist”. Further, in series [5], the “Cognitive performance, escape latency” value is reported as “capable of improving cognitive performance”. In the series with neuronal cultures, the “Nuclear morphology / nuclear intensity compared to vehicle” value is given as “did not decrease nuclear intensity”.
